Test [1] deals with T1, APJ (Homo sapiens, UniProt P35414).
T1 construct: expressed in transfected cells; host or cells: CHO (CHO-A10; clone 6 for the cAMP assay)
T1 sequence (P35414 1-380): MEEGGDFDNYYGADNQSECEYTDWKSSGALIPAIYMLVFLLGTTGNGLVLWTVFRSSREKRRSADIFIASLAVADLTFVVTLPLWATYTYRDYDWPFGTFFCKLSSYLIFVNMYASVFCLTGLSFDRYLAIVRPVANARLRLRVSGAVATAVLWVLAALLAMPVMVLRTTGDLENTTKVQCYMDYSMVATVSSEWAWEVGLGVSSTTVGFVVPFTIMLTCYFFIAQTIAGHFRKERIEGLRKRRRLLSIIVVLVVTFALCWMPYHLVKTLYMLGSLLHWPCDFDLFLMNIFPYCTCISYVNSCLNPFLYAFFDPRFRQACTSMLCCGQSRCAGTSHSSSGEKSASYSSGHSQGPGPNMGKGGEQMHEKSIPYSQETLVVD
The test is described as follows: Receptor binding assay-2 (compound in Reference Example 2 used). As to conditions: compound in Reference Example 2 used as ligand; read-out: IC50.

The target of test [2] is T1, APJ. The test is described as follows: Receptor binding assay-1 (125I-labeled compound in Reference Example 1, CHO-A10 membrane fraction). Conditions: 125I-labeled compound in Reference Example 1 at 100 pM, room temperature […]. Here is the method: This product was mixed with an equal volume of an assay buffer (50 mM Tris-HCl/pH 7.5, 5 mM EDTA, 0.5 mM PMSF, 20 μg/ml leupeptin, 0.1 μg/ml pepstatin A, 4 μg/ml E-64 (Peptide Research Laboratory, Co.), 0.1% bovine serum albumin) and stored at −30° C. before use.
CHO-A10 cells were cultured, recovered with PBS containing 5 mM EDTA from a culture vessel, and suspended in the above-mentioned assay buffer not containing bovine serum albumin. The cells were homogenized 3 times at 12,000 rpm for 15 seconds by a Polytron homogenizer (manufactured by Kinematica Inc.) and then centrifuged (1000×g, 4° C., 10 minutes), and the supernatant was recovered. The precipitates were subjected again to the same procedure as above, and the respective supernatants were combined and centrifuged at 100,000×g, 4° C. for 1 hour, to recover precipitates (membrane fraction). The membrane fraction was suspended again in a small amount of the buffer, homogenized with a Teflon homogenizer and stored at −80° C. before use.
Binding assay was carried out under the following conditions. […] Measurement of non-specific binding was carried out using a well containing 1 μM unlabeled compound in place of the test sample. After the incubation was finished, a cell harvester (Packard) adapted to 96 wells and a filter unit (GF/C, Packard) were used for separation thereby capturing the membrane fraction on the filter. After the filter was sufficiently dried, Microcinti 0 (Packard) was added thereto, and using Top Count (Packard), the amount of the labeled material captured together with the membrane fraction on the filter was measured.

The target in test [3] is T1, APJ. The experiment in a line: Inhibitory activity on forskolin-stimulated cAMP production in CHO-A10 clone 6 cells. As to conditions: read-out: EC50. The test is classed as cell-based.

Non-standard residues stand in square brackets, D forms with d. Residues, ends and D or L forms follow the SMILES beside them. Phe(4-Cl) = N[C@@H](Cc1ccc(Cl)cc1)C(=O)O; Cha = N[C@@H](CC1CCCCC1)C(=O)O

Results on ten compounds are retold here after patent publication US20040116336A1, “Peptide derivatives” (priority 2002, published 2004).

As a reminder, the IC50 is the concentration needed to halve the response being measured. By EC50 is commonly meant the concentration giving half of the maximal effect. With `CCCC[C@H](NC(=O)[C@@H]1CCCN1C(=O)CNC(=O)[C@H](CCCCN)NC(=O)[C@H](Cc1c[nH]cn1)NC(=O)[C@H](CO)NC(=O)[C@H](CC(C)C)NC(=O)[C@H](CCCNC(=N)N)NC(=O)[C@@H]1CCCN1C(=O)[C@H](CCCNC(=N)N)NC(=O)[C@H](CCC(N)=O)NC(=O)[C@H](CCCNC(=N)N)NC(=O)[C@@H](N)CCCNC(=N)N)C(=O)N1CCC[C@H]1C(=O)N[C@@H](Cc1ccc(O)cc1)C(=O)O` [Compound in Ex. 14], the IC50 on APJ [1] worked out at 27 pM; at APJ [2], 2700 pM. The EC50 on APJ [3] amounted to 280 pM.

In the case of `CC(C)C[C@H](NC(=O)[C@H](CCCNC(=N)N)NC(=O)[C@@H]1CCCN1C(=O)[C@H](CCCNC(=N)N)NC(=O)[C@H](CCC(N)=O)NC(=O)[C@H](CCCNC(=N)N)NC(=O)[C@@H](N)CCCNC(=N)N)C(=O)N[C@@H](CO)C(=O)N[C@@H](Cc1c[nH]cn1)C(=O)N[C@@H](CCCCN)C(=O)NCC(=O)N1CCC[C@H]1C(=O)N[C@@H](CC1CCCCC1)C(=O)N1CCC[C@H]1C(=O)N[C@@H](Cc1ccc(Cl)cc1)C(=O)O` [Compound in Ex. 2], the values for the half-inhibitory concentration (IC50) on APJ [1] and on APJ [2] were 330 pM and 470 pM, respectively. At APJ [3], the EC50 was 530 pM.

Take `CSCC[C@H](NC(=O)[C@@H]1CCCN1C(=O)CNC(=O)[C@H](CCCNC(=N)N)NC(=O)[C@H](C)NC(=O)[C@H](CO)NC(=O)[C@H](CC(C)C)NC(=O)[C@H](CCCNC(=N)N)NC(=O)[C@@H]1CCCN1C(=O)[C@H](CCCNC(=N)N)NC(=O)[C@H](CCC(N)=O)NC(=O)[C@H](CCCNC(=N)N)NC(=O)[C@@H](N)CCCNC(=N)N)C(=O)O` [Compound in Ex. 18]: the IC50 on APJ [1] was 23 pM; at APJ [2], 2500 pM. In addition, the EC50 on APJ [3] turned out to be 180 pM.

As to `CSCC[C@H](NC(=O)[C@@H]1CCCN1C(=O)CNC(=O)[C@H](CCCCN)NC(=O)[C@H](Cc1c[nH]cn1)NC(=O)[C@H](CO)NC(=O)[C@H](CC(C)C)NC(=O)[C@H](CCCNC(=N)N)NC(=O)[C@@H]1CCCN1C(=O)[C@H](CCCNC(=N)N)NC(=O)[C@H](C)NC(=O)[C@H](CCCNC(=N)N)NC(=O)[C@@H](N)CCCNC(=N)N)C(=O)N1CCC[C@H]1C(=O)N[C@@H](Cc1ccccc1)C(=O)O` [Compound in Ex. 25], the results for the IC50 at APJ [1] and at APJ [2] were 67 pM and 34000 pM, respectively. The EC50 on APJ [3] was 250 pM.

For the compound `CC(C)C[C@H](NC(=O)[C@H](CCCNC(=N)N)NC(=O)[C@@H]1CCCN1C(=O)[C@@H](N)CCCNC(=N)N)C(=O)N[C@@H](Cc1ccccc1)C(=O)N[C@@H](Cc1c[nH]cn1)C(=O)N[C@@H](CCCCN)C(=O)NCC(=O)N1CCC[C@H]1C(=O)N[C@@H](CC1CCCCC1)C(=O)N1CCC[C@H]1C(=O)N[C@@H](Cc1ccc(Cl)cc1)C(=O)O` [Compound in Ex. 13] (H-RPRLFHKGP[Cha]P[Phe(4-Cl)]-OH; N-terminus and C-terminus assumed), the IC50 at APJ [1] was 290 pM; at APJ [2], 2700 pM. The EC50 at APJ [3] was 1000 pM.

H-RPRLSARGPMPF-OH [Compound in Ex. 24]: the IC50 amounted to 57 pM on APJ [1] and 27000 pM at APJ [2]. Further, the half-maximal effective concentration (EC50) on APJ [3] amounted to 250 pM.

For the compound `CC(C)C[C@H](NC(=O)[C@H](CCCNC(=N)N)NC(=O)[C@@H]1CCCN1C(=O)[C@@H](N)CCCNC(=N)N)C(=O)N[C@@H](CO)C(=O)N[C@@H](C)C(=O)N[C@@H](CCCNC(=N)N)C(=O)NCC(=O)N1CCC[C@H]1C(=O)N[C@@H](CC1CCCCC1)C(=O)N1CCC[C@H]1C(=O)N[C@@H](Cc1ccc(Cl)cc1)C(=O)O` [Compound in Ex. 5] (H-RPRLSARGP[Cha]P[Phe(4-Cl)]-OH), the IC50 stood at 130 pM on APJ [1] and 1200 pM at APJ [2]. For the same compound, the EC50 on APJ [3] turned out to be 510 pM.

As for `CC(C)C[C@H](NC(=O)[C@H](CCCNC(=N)N)NC(=O)[C@@H]1CCCN1C(=O)[C@@H](N)CCCNC(=N)N)C(=O)N[C@@H](Cc1ccccc1)C(=O)N[C@@H](Cc1c[nH]cn1)C(=O)N[C@@H](CCCCN)C(=O)NCC(=O)N1CCC[C@H]1C(=O)N[C@@H](CC1CCCCC1)C(=O)N1CCC[C@H]1C(=O)N[C@@H](Cc1ccccc1)C(=O)O` [Compound in Ex. 15] (H-RPRLFHKGP[Cha]PF-OH; N-terminus and C-terminus assumed), the IC50 on APJ [1] is 130 pM; on APJ [2], 8000 pM. On APJ [3], the EC50 amounted to 460 pM.

In the case of `CC(C)C[C@H](NC(=O)[C@H](CCCNC(=N)N)NC(=O)[C@@H]1CCCN1C(=O)[C@@H](N)CCCNC(=N)N)C(=O)N[C@@H](CO)C(=O)N[C@@H](C)C(=O)N[C@@H](CCCNC(=N)N)C(=O)NCC(=O)N1CCC[C@H]1C(=O)N[C@@H](CC1CCCCC1)C(=O)N1CCC[C@H]1C(=O)N[C@@H](Cc1ccccc1)C(=O)O` [Compound in Ex. 11] (H-RPRLSARGP[Cha]PF-OH; N-terminus and C-terminus assumed), the IC50 was found to be 84 pM on APJ [1] and 2200 pM at APJ [2]. At APJ [3], the EC50 was determined as 590 pM.

For `CC(C)C[C@H](NC(=O)[C@H](CCCNC(=N)N)NC(=O)[C@@H]1CCCN1C(=O)[C@@H](N)CCCNC(=N)N)C(=O)N[C@@H](CO)C(=O)N[C@@H](C)C(=O)N[C@@H](CCCNC(=N)N)C(=O)NCC(=O)N1CCC[C@H]1C(=O)N[C@@H](CC1CCCCC1)C(=O)N[C@@H](Cc1ccc(Cl)cc1)C(=O)O` [Compound in Ex. 4] (H-RPRLSARGP[Cha][Phe(4-Cl)]-OH; N-terminus and C-terminus assumed), the IC50 on APJ [1] amounted to 100 pM; on APJ [2] it was 1000 pM. Further, on APJ [3], the EC50 was found to be 650 pM.
